Data reported in article PMC4932848 (Biochemistry, 2012).

Molecular target: T1, hUXS (human UDP-α-D-xylose synthase) (Homo sapiens, UniProt Q8NBZ7)
T1 sequence (Q8NBZ7 85-420): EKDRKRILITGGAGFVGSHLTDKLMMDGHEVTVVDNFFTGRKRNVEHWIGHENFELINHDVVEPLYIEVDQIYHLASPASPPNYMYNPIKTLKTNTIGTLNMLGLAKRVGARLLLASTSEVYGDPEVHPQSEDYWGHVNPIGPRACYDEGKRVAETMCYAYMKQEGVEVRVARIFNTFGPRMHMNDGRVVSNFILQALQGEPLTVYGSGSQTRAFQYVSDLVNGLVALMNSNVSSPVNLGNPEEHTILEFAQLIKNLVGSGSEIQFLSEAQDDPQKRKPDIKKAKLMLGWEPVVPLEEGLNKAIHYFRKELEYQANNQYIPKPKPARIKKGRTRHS
Assay: X-ray crystal structure, […] Å
Type: binding
Settings: copurified NAD+ bound, open conformation, no nucleotide sugar

`NC(=O)c1ccc[n+]([C@@H]2O[C@H](COP(=O)(O)OP(=O)(O)OC[C@H]3O[C@@H](n4cnc5c(N)ncnc54)[C@H](O)[C@@H]3O)[C@@H](O)[C@H]2O)c1` [NAD^+] was tested, and the “X-ray crystal structure, 2.5 Å” value was “Recombinant hUXS crystallizes with the copurified NAD^+ cofactor bound”.
